The text below walks through data of ChEMBL document CHEMBL6182857, “Targeting biofilm formation in Candida albicans with halogenated pyrrolopyrimidine derivatives” (Eur J Med Chem, 2025).

Active and inactive are the calls of the source. The rule behind the calls is not given here.

In series [1] the test system is Candida albicans. Description: Antibiofilm activity against fluconazole-resistant Candida albicans DAY185 assessed as inhibition of biofilm formation at 50 ug/ml measured after 24 hrs by crystal violet staining based analysis relative to control. Type of series: functional.
For series [2], the system named is Candida albicans. The series can be described thus: Antibiofilm activity against fluconazole-resistant Candida albicans DAY185 assessed as inhibition of biofilm formation at 1 ug/ml measured after 24 hrs by crystal violet staining based analysis relative to control. The format is functional.
Series [3] deals with Candida albicans. The series can be described thus: Inhibition of yeast to hypha transition in fluconazole-resistant Candida albicans DAY185 assessed as decrease in germ tube formation at 10 to 20 ug/ml measured after 24 hrs by SEM analysis. Type of series: functional, organism-based. Conditions: dose 10-20 µg/ml.
In series [4] the test system is Candida albicans. The series can be described thus: Antibiofilm activity against fluconazole-resistant Candida albicans DAY185 assessed as reduction in biofilm thickness on bio-compatible PLGA surface coated with compound at 10 to 20 ug/ml incubated for 24 hrs by CLSM analysis. The conditions noted are these: dose 10-20 µg/ml. The format is functional, organism-based.

The subject of series [5] is Candida albicans. The series can be described thus: Inhibition of yeast to hypha transition in fluconazole-resistant Candida albicans DAY185 assessed as decrease in hyphal growth at 5 to 20 ug/ml measured after 24 hrs by SEM analysis. The format is functional, organism-based. The conditions noted are these: dose 5-20 µg/ml.
In series [6] the test system is Candida albicans. Description: Downregulation of ALS3 mRNA level in fluconazole-resistant Candida albicans DAY185 assessed as fold decrease at 50 ug/ml incubated for 6 hrs by qRT-PCR analysis relative to control. The conditions noted are these: dose 50.0 µg/ml. Type of series: functional.
The subject of series [7] is Candida albicans. The series can be described thus: Antibiofilm activity against fluconazole-resistant Candida albicans DAY185 assessed as inhibition of biofilm formation at 20 ug/ml measured after 24 hrs by crystal violet staining based analysis relative to control. The format is functional.
For series [8], the system named is Candida albicans. The series can be described thus: Upregulation of CDR11 mRNA level in fluconazole-resistant Candida albicans DAY185 assessed as fold increase at 50 ug/ml incubated for 6 hrs by qRT-PCR analysis relative to control. The format is functional. Conditions: dose 50.0 µg/ml.
For series [9], the system named is Candida albicans. Description: Inhibition of yeast to hypha transition in fluconazole-resistant Candida albicans DAY185 assessed as decrease in cell aggregation at 10 to 20 ug/ml measured after 24 hrs by SEM analysis. Type of series: functional, organism-based. Conditions: dose 10-20 µg/ml.
Series [10] relates to Candida albicans. Description: Antibiofilm activity against fluconazole-resistant Candida albicans DAY185 assessed as inhibition of biofilm formation on bio-compatible PLGA surface coated with compound at 10 to 20 ug/ml incubated for 24 hrs by CLSM analysis. Conditions: dose 10-20 µg/ml. The format is functional, organism-based.
Series [11] has as its system Candida albicans. The series can be described thus: Additive antibiofilm activity against fluconazole-resistant Candida albicans DAY185 assessed as inhibition of biofilm formation at 10 ug/ml measured after 24 hrs in presence of AMB by crystal violet staining based analysis relative to control. Type of series: functional, organism-based. The conditions noted are these: dose 10.0 µg/ml.

Series [12] has as its system Candida albicans. The series can be described thus: Downregulation of HWP1 mRNA level in fluconazole-resistant Candida albicans DAY185 assessed as fold decrease at 50 ug/ml incubated for 6 hrs by qRT-PCR analysis relative to control. The format is functional. The conditions noted are these: dose 50.0 µg/ml.
The test system of series [13] is Candida albicans. The series can be described thus: Antibiofilm activity against Candida albicans KCCM 12552 assessed as inhibition of biofilm formation by crystal violet staining based analysis. Type of series: functional, organism-based.
Series [14] deals with Candida albicans. The series can be described thus: Inhibition of yeast to hypha transition in fluconazole-resistant Candida albicans DAY185 assessed as decrease in filamentous growth at 10 to 20 ug/ml measured after 24 hrs by SEM analysis. The format is functional, organism-based. Conditions: dose 10-20 µg/ml.
Series [15] relates to Candida albicans. The series can be described thus: Antibiofilm activity against fluconazole-resistant Candida albicans DAY185 assessed as reduction in mean biofilm thickness on bio-compatible PLGA surface coated with compound incubated for 24 hrs by COMSTAT analysis. The format is functional, organism-based.
For a further series, the system named is Brassica rapa. The series can be described thus: Toxicity in Brassica rapa assessed as seed germination rate at 10 to 100 ug/ml treated for 4 days relative to control. The format is organism-based. The conditions noted are these: in vivo, 96 h, at 10 to 100 µg/mL, dose 10-100 µg/ml, time 4 day.
Series [16] concerns Candida albicans. The series can be described thus: Antibiofilm activity against fluconazole-resistant Candida albicans DAY185 assessed as reduction in overall biofilm mass on bio-compatible PLGA surface coated with compound at 10 to 20 ug/ml incubated for 24 hrs by CLSM analysis. Type of series: functional, organism-based. The conditions noted are these: dose 10-20 µg/ml.
The test system of series [17] is [Candida] auris. Description: Antibiofilm activity against Candida auris KCTC 17809 assessed as inhibition of biofilm formation by crystal violet staining based analysis. The format is functional, organism-based. The conditions noted are these: Candidozyma auris.
Series [18] concerns Candida albicans. The series can be described thus: Downregulation of UME6 mRNA level in fluconazole-resistant Candida albicans DAY185 assessed as fold decrease at 50 ug/ml incubated for 6 hrs by qRT-PCR analysis relative to control. The conditions noted are these: dose 50.0 µg/ml. The format is functional.
The subject of series [19] is Candida albicans. Description: Downregulation of ECE1 mRNA level in fluconazole-resistant Candida albicans DAY185 assessed as fold decrease at 50 ug/ml incubated for 6 hrs by qRT-PCR analysis relative to control. Conditions: dose 50.0 µg/ml. The format is functional.
Series [20] deals with Candida albicans. The series can be described thus: Antibiofilm activity against Candida albicans ATCC 10231 assessed as inhibition of biofilm formation by crystal violet staining based analysis. The format is functional, organism-based.
Series [21] concerns Candida albicans. The series can be described thus: Antibiofilm activity against fluconazole-resistant Candida albicans DAY185 assessed as reduction in substratum coverage on bio-compatible PLGA surface coated with compound at 20 ug/ml incubated for 24 hrs by COMSTAT analysis. The conditions noted are these: dose 20.0 µg/ml. The format is functional, organism-based.
The test system of series [22] is [Candida] auris. Description: Antibiofilm activity against Candida auris KCTC 17810 assessed as inhibition of biofilm formation by crystal violet staining based analysis. Type of series: functional, organism-based. Conditions: Candidozyma auris.
For series [23], the system named is Candida albicans. Description: Antibiofilm activity against fluconazole-resistant Candida albicans DAY185 assessed as reduction in biofilm mass on bio-compatible PLGA surface coated with compound incubated for 24 hrs by COMSTAT analysis. The format is functional, organism-based.
The subject of series [24] is Candida albicans. Description: Additive antibiofilm activity against fluconazole-resistant Candida albicans DAY185 assessed as inhibition of biofilm formation at 10 ug/ml measured after 24 hrs in presence of BTZ by crystal violet staining based analysis relative to control. The format is functional, organism-based. Conditions: dose 10.0 µg/ml.
A short description of series [25]: Toxicity in Caenorhabditis elegans assessed as nematode survival at 100 ug/ml treated for 7 days. The conditions noted are these: 168 h, dose 100 µg/ml, time 7 day.
Series [26] has as its system Candida albicans. Description: Upregulation of YWP1 mRNA level in fluconazole-resistant Candida albicans DAY185 assessed as fold increase at 50 ug/ml incubated for 6 hrs by qRT-PCR analysis relative to control. The format is functional. Conditions: dose 50.0 µg/ml.
Series [27] relates to Candida albicans. The series can be described thus: Inhibition of yeast to hypha transition in fluconazole-resistant Candida albicans DAY185 assessed as decrease in hyphal adhesion at 5 to 20 ug/ml measured after 24 hrs by SEM analysis. Type of series: functional, organism-based. Conditions: dose 5-20 µg/ml.
Series [28] deals with Candida albicans. Description: Antibiofilm activity against fluconazole-resistant Candida albicans DAY185 assessed as inhibition of biofilm formation at 10 to 20 ug/ml measured after 24 hrs by 2D/3D imaging analysis relative to control. The format is functional. Conditions: dose 10-20 µg/ml.
Series [29] relates to Candida albicans. The series can be described thus: Antibiofilm activity against fluconazole-resistant Candida albicans DAY185 assessed as inhibition of biofilm formation at 0.5 ug/ml measured after 24 hrs by crystal violet staining based analysis relative to control. The format is functional, organism-based. Conditions: dose 0.5 µg/ml.
In series [30] the test system is Candida albicans. The series can be described thus: Antibiofilm activity against fluconazole-resistant Candida albicans DAY185 assessed as inhibition of biofilm formation at 5 ug/ml measured after 24 hrs by crystal violet staining based analysis relative to control. The conditions noted are these: dose 5.0 µg/ml. The format is functional, organism-based.

On to `Clc1c[nH]c2ncnc(Cl)c12`, for which the inhibition at 50 µg/mL in the series on Candida albicans [1] was greater than 85%.
Turning to `CC(=O)N1CCN(c2ccc(OCC3COC(Cn4ccnc4)(c4ccc(Cl)cc4Cl)O3)cc2)CC1` (stereo not drawn) [KETOCONAZOLE], the inhibition at 1 µg/mL in the series with Candida albicans [2] is less than 12%.
For the compound `Clc1ncnc2[nH]cc(I)c12`, the inhibition entry in the series on Candida albicans [3], in the series on Candida albicans [5], in the series on Candida albicans [9], in the series on Candida albicans [10], in the series on Candida albicans [11] and in the series with Candida albicans [14] was “Active” in each case. Also, the inhibition entry in the series with Candida albicans [24] and with Candida albicans [27] was “Active” in each case. For the same compound, the Activity entry is “Active; More Pronounced Effects Were Observed At Higher Concentration” with Candida albicans [4]; “Dose-dependent-effect; Nearly Undetectable Levels Were Observed At 20 Ug/Ml” in the series with Candida albicans [15]; greater than 90% in the series with Brassica rapa; “Active; More Pronounced Effects Were Observed At Higher Concentration” in the series with Candida albicans [16]; “Dose-dependent-effect; Nearly Undetectable Levels Were Observed At 20 Ug/Ml” with Candida albicans [23]; “Toxic” in series [25]. Also, the inhibition at 50 µg/mL in the series on Candida albicans [1] was greater than 95%. The fold change (FC) is 145 in the series with Candida albicans [6]; 13 in the series with Candida albicans [8]; 55 in the series on Candida albicans [12]; 15 with Candida albicans [18]; 267 in the series with Candida albicans [19]; 14 in the series with Candida albicans [26]. Further, in the series on Candida albicans [7], the inhibition at 20 µg/mL was greater than 85%. Also, the inhibition result in the series with Candida albicans [13] is “Dose-dependent-effect”; in series [Candida] auris [17], “Dose-dependent-effect”; in the series with Candida albicans [20] it was “Dose-dependent-effect”; in [Candida] auris [22], “Dose-dependent-effect”; with Candida albicans [28], “Active; Significant Effect Was Observed At 20 Ug/Ml”. Moreover, the outcome with Candida albicans [21] was Active.
Take `C[C@@H]1[C@H](O)[C@@H](C)/C=C/C=C/C=C/C=C/C=C/C=C/C=C/[C@H](O[C@@H]2O[C@H](C)[C@@H](O)[C@H](N)[C@@H]2O)C[C@@H]2O[C@](O)(C[C@@H](O)C[C@@H](O)[C@H](O)CC[C@@H](O)C[C@@H](O)CC(=O)O[C@H]1C)C[C@H](O)[C@H]2C(=O)O` [AMPHOTERICIN B]: in the series with Candida albicans [29], the inhibition result was “Active”. The inhibition at 1 µg/mL in the series with Candida albicans [2] came out at 96%.
Consider `OC(Cn1cncn1)(Cn1cncn1)c1ccc(F)cc1F` [FLUCONAZOLE], for which the inhibition at 1 µg/mL in the series with Candida albicans [2] was less than 12%.
Turning to `Clc1ncnc2[nH]cc(Br)c12`, the inhibition at 50 µg/mL with Candida albicans [1] is greater than 85%.
On to `Clc1nc(Cl)c2c(Br)c[nH]c2n1`, for which the inhibition at 50 µg/mL with Candida albicans [1] is greater than 95%. For the same compound, in the series on Candida albicans [7], the inhibition at 20 µg/mL was greater than 85%.
For `Clc1ccc(CCC(Cn2ccnc2)Sc2c(Cl)cccc2Cl)cc1` (stereo not drawn) [BUTOCONAZOLE], the inhibition entry in the series on Candida albicans [30] is “Active”. Further, the inhibition at 1 µg/mL in the series with Candida albicans [2] amounted to 56%.
